Test results taken from the supplement of paper PMC8612539.
≈ marks a conversion by molar mass, not a printed value.

Key:
Enterococcus spp. = assay: minimum inhibitory concentration (MIC)
Description: (§1)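 Broth microdilution MIC (Sensititre BOPO7F bovine plate, CLSI methods) of 19 antimicrobials against field isolates of P. multocida, M. haemolytica, H. somni (deep nasopharyngeal swabs) and E. coli, Enterococcus spp. (rectal swabs) from weaned dairy heifers. Incubation 16-24 h at 35 C. MIC is the lowest concentration preventing visible growth. Values with <= or > lie at the tested range limits. Trimethoprim-sulfamethoxazole is given as the trimethoprim component of a 1:19 mixture.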

Mannheimia haemolytica = assay: minimum inhibitory concentration (MIC)
Description: as §1

CC1(C)S[C@@H]2[C@H](NC(=O)Cc3ccccc3)C(=O)N2[C@H]1C(=O)O [Penicillin]
minimum inhibitory concentration [µg/mL]
Settings | Enterococcus spp. | Mannheimia haemolytica
isolate (source animal id): 2 | ≤ 0.12 | –
isolate (source animal id): 8 | – | 0.25 (≈ 0.748 µM)
isolate (source animal id): 13 | – | 0.25 (≈ 0.748 µM)
isolate (source animal id): 18 | – | ≤ 0.12
isolate (source animal id): 21 | – | 0.25 (≈ 0.748 µM)
isolate (source animal id): 25 | – | 0.25 (≈ 0.748 µM)
isolate (source animal id): 27 | – | 0.25 (≈ 0.748 µM)
isolate (source animal id): 28 | – | > 8
isolate (source animal id): 30 | – | ≤ 0.12
isolate (source animal id): 31 | – | > 8
isolate (source animal id): 32 | – | ≤ 0.12
isolate (source animal id): 34 | – | ≤ 0.12
isolate (source animal id): 35 | 2 (≈ 5.98 µM) | –
isolate (source animal id): 36 | – | ≤ 0.12
isolate (source animal id): 37 | – | ≤ 0.12
isolate (source animal id): 40 | – | ≤ 0.12
isolate (source animal id): 41 | – | ≤ 0.12
isolate (source animal id): 42 | 2 (≈ 5.98 µM) | –
isolate (source animal id): 43 | – | 0.25 (≈ 0.748 µM)
isolate (source animal id): 44 | 2 (≈ 5.98 µM) | –
isolate (source animal id): 46 | – | ≤ 0.12
isolate (source animal id): 49 | – | ≤ 0.12
isolate (source animal id): 50 | – | > 8
isolate (source animal id): 51 | – | 0.25 (≈ 0.748 µM)
isolate (source animal id): 52 | – | ≤ 0.12
isolate (source animal id): 53 | – | ≤ 0.12
isolate (source animal id): 55 | – | ≤ 0.12
isolate (source animal id): 56 | – | ≤ 0.12
isolate (source animal id): 57 | – | 0.25 (≈ 0.748 µM)
isolate (source animal id): 79 | 2 (≈ 5.98 µM) | –
isolate (source animal id): 88 | ≤ 0.12 | –
isolate (source animal id): 91 | ≤ 0.12 | –
isolate (source animal id): 92 | 0.5 (≈ 1.5 µM) | –
isolate (source animal id): 100 | – | ≤ 0.12
isolate (source animal id): 103 | – | ≤ 0.12
isolate (source animal id): 107 | – | ≤ 0.12
isolate (source animal id): 108 | – | ≤ 0.12
isolate (source animal id): 111 | ≤ 0.12 | –
isolate (source animal id): 112 | – | 0.25 (≈ 0.748 µM)
isolate (source animal id): 113 | – | 0.5 (≈ 1.5 µM)
isolate (source animal id): 121 | – | > 8
isolate (source animal id): 122 | 2 (≈ 5.98 µM) | 0.25 (≈ 0.748 µM)
isolate (source animal id): 123 | 1 (≈ 2.99 µM) | 1 (≈ 2.99 µM)
isolate (source animal id): 126 | – | > 8
isolate (source animal id): 133 | 1 (≈ 2.99 µM) | 0.5 (≈ 1.5 µM)
isolate (source animal id): 135 | – | 0.25 (≈ 0.748 µM)
isolate (source animal id): 138 | – | > 8
isolate (source animal id): 141 | – | ≤ 0.12
isolate (source animal id): 142 | – | 0.25 (≈ 0.748 µM)
isolate (source animal id): 145 | – | 0.25 (≈ 0.748 µM)
isolate (source animal id): 149 | – | ≤ 0.12
isolate (source animal id): 151 | – | 0.25 (≈ 0.748 µM)
isolate (source animal id): 152 | – | ≤ 0.12
isolate (source animal id): 154 | – | 0.5 (≈ 1.5 µM)
isolate (source animal id): 158 | 2 (≈ 5.98 µM) | –
isolate (source animal id): 159 | – | > 8
isolate (source animal id): 162 | – | > 8
isolate (source animal id): 168 | 4 (≈ 12 µM) | –
isolate (source animal id): 169 | 4 (≈ 12 µM) | –
isolate (source animal id): 170 | – | > 8
isolate (source animal id): 171 | 1 (≈ 2.99 µM) | 0.5 (≈ 1.5 µM)
isolate (source animal id): 172 | – | > 8
isolate (source animal id): 173 | – | > 8
isolate (source animal id): 175 | 4 (≈ 12 µM) | –
isolate (source animal id): 177 | 2 (≈ 5.98 µM) | –
isolate (source animal id): 179 | – | > 8
isolate (source animal id): 180 | – | > 8
isolate (source animal id): 181 | 4 (≈ 12 µM) | –
isolate (source animal id): 182 | 4 (≈ 12 µM) | –
isolate (source animal id): 183 | 2 (≈ 5.98 µM) | > 8
isolate (source animal id): 186 | – | > 8
isolate (source animal id): 187 | 4 (≈ 12 µM) | > 8
isolate (source animal id): 188 | – | > 8
isolate (source animal id): 190 | 4 (≈ 12 µM) | 0.5 (≈ 1.5 µM)
isolate (source animal id): 191 | – | > 8
isolate (source animal id): 192 | – | 0.25 (≈ 0.748 µM)
isolate (source animal id): 194 | 1 (≈ 2.99 µM) | –
isolate (source animal id): 195 | 4 (≈ 12 µM) | –
isolate (source animal id): 197 | 0.5 (≈ 1.5 µM) | –
isolate (source animal id): 201 | – | > 8
isolate (source animal id): 202 | – | > 8
isolate (source animal id): 209 | – | > 8
isolate (source animal id): 211 | 4 (≈ 12 µM) | > 8
isolate (source animal id): 214 | 2 (≈ 5.98 µM) | –
isolate (source animal id): 220 | – | > 8
isolate (source animal id): 221 | – | > 8
isolate (source animal id): 222 | 1 (≈ 2.99 µM) | –
isolate (source animal id): 223 | 1 (≈ 2.99 µM) | > 8
isolate (source animal id): 228 | 2 (≈ 5.98 µM) | –
isolate (source animal id): 230 | 8 (≈ 23.9 µM) | –
isolate (source animal id): 233 | – | > 8
isolate (source animal id): 235 | 2 (≈ 5.98 µM) | –
isolate (source animal id): 236 | 2 (≈ 5.98 µM) | –
isolate (source animal id): 237 | – | 0.25 (≈ 0.748 µM)
isolate (source animal id): 239 | 1 (≈ 2.99 µM) | –
isolate (source animal id): 241 | 4 (≈ 12 µM) | > 8
isolate (source animal id): 244 | 1 (≈ 2.99 µM) | –
isolate (source animal id): 246 | 1 (≈ 2.99 µM) | –
isolate (source animal id): 247 | 8 (≈ 23.9 µM) | –
isolate (source animal id): 250 | 1 (≈ 2.99 µM) | –
isolate (source animal id): 252 | 2 (≈ 5.98 µM) | 0.25 (≈ 0.748 µM)
isolate (source animal id): 253 | – | 0.25 (≈ 0.748 µM)
isolate (source animal id): 259 | – | > 8
isolate (source animal id): 260 | – | ≤ 0.12
isolate (source animal id): 262 | – | > 8
isolate (source animal id): 268 | ≤ 0.12 | –
isolate (source animal id): 282 | 2 (≈ 5.98 µM) | > 8
isolate (source animal id): 285 | 2 (≈ 5.98 µM) | –
isolate (source animal id): 287 | – | 0.25 (≈ 0.748 µM)
isolate (source animal id): 288 | – | 0.5 (≈ 1.5 µM)
isolate (source animal id): 289 | 0.5 (≈ 1.5 µM) | –
isolate (source animal id): 290 | 0.25 (≈ 0.748 µM) | –
isolate (source animal id): 291 | – | ≤ 0.12
isolate (source animal id): 293 | – | 0.25 (≈ 0.748 µM)
isolate (source animal id): 296 | 0.5 (≈ 1.5 µM) | –
isolate (source animal id): 298 | ≤ 0.12 | ≤ 0.12
isolate (source animal id): 299 | – | 0.25 (≈ 0.748 µM)
isolate (source animal id): 300 | – | ≤ 0.12
isolate (source animal id): 301 | ≤ 0.12 | –
isolate (source animal id): 302 | – | ≤ 0.12
isolate (source animal id): 304 | – | ≤ 0.12
isolate (source animal id): 306 | – | ≤ 0.12
isolate (source animal id): 308 | – | ≤ 0.12
isolate (source animal id): 309 | – | ≤ 0.12
isolate (source animal id): 310 | 4 (≈ 12 µM) | –
isolate (source animal id): 313 | – | 0.25 (≈ 0.748 µM)
isolate (source animal id): 318 | – | ≤ 0.12
isolate (source animal id): 320 | 0.5 (≈ 1.5 µM) | ≤ 0.12
isolate (source animal id): 321 | – | ≤ 0.12
isolate (source animal id): 323 | – | 0.25 (≈ 0.748 µM)
isolate (source animal id): 324 | – | ≤ 0.12
isolate (source animal id): 326 | – | ≤ 0.12
isolate (source animal id): 328 | – | 0.25 (≈ 0.748 µM)
isolate (source animal id): 329 | – | 0.25 (≈ 0.748 µM)
isolate (source animal id): 331 | ≤ 0.12 | –
isolate (source animal id): 333 | 0.25 (≈ 0.748 µM) | ≤ 0.12
isolate (source animal id): 335 | – | 0.5 (≈ 1.5 µM)
isolate (source animal id): 338 | – | 0.25 (≈ 0.748 µM)
isolate (source animal id): 341 | 2 (≈ 5.98 µM) | –
